Test systems include SNB-75; TK-10; NCI-H226; HT-29; SN12C; HCT-116; RXF 393; SF-295; OVCAR-3; SK-MEL-28; A549; IGROV-1; HCC 2998; NCI-H460; K562; EKVX; SK-OV-3; SK-MEL-5; MCF7; U-251.
Test in all cases: NCI tumour cell line growth inhibition, 48 h

Here are results for eight molecules from ChEMBL document CHEMBL1201862, “PubChem BioAssay data set” (2004).

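Cultured in 96-well plates, cells were exposed to test compound for 48 hours across five concentrations. GI50 = concentration required for 50% inhibition of growth.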 The source made the active and inactive calls. Cut-off read from the data, not from the text of the source: active = GI50 up to about 1.1 µM and inactive = higher.

In the case of `Cn1c(=O)n(CC2CS2)c2ccccc21` (stereo not drawn), the GI50 in the test on SNB-75, in the test on TK-10, with NCI-H226, in the test with HT-29, with SN12C and with HCT-116 was > 100 µM (inactive) throughout. In addition, the GI50 in the test on RXF 393, in the test with SF-295, in the test on OVCAR-3, with SK-MEL-28, in the test on A549 and in the test with IGROV-1 was > 100 µM (inactive) throughout. Moreover, the GI50 in the test on HCC 2998, with NCI-H460, with K562, in the test on EKVX and in the test with SK-OV-3 was > 100 µM (inactive) each time.
On to `CC(C)(C)[Si](C)(C)OCC1OC(n2cnc3c(N)ncnc32)C2OC(=S)OC12` (stereo not drawn), for which the GI50 is 17 µM (inactive) in the test with SK-MEL-5; 29.3 µM (inactive) in the test with SNB-75; 34.6 µM (inactive) in the test with MCF7; > 100 µM (inactive) in the test with TK-10; 29.4 µM (inactive) in the test on NCI-H226; 29.4 µM (inactive) with HT-29. The GI50 in the test with SN12C was 35.5 µM (inactive); with HCT-116, 27.4 µM (inactive); in the test with RXF 393, 43.9 µM (inactive); in the test on SF-295, 37.4 µM (inactive); with OVCAR-3, 29.2 µM (inactive); with SK-MEL-28, 38.4 µM (inactive). The GI50 in the test with U-251 was 25.2 µM (inactive); in the test on IGROV-1 it was 25 µM (inactive); in the test on NCI-H460, 32.7 µM (inactive); with K562, 4.84 µM (inactive); in the test on SK-OV-3, 19.5 µM (inactive).
Consider `CC(C(=O)O)c1ccc(-n2nnc3c(=O)[nH][nH]c(=O)c32)cc1` (stereo not drawn), for which the GI50 in the test with SK-MEL-5, with MCF7, in the test with TK-10, in the test with SN12C, in the test on HCT-116 and in the test on SF-295 was > 100 µM (inactive) throughout. Moreover, the GI50 with OVCAR-3, with SK-MEL-28, in the test on U-251, in the test on A549, in the test with HCC 2998 and in the test with NCI-H460 was > 100 µM (inactive) each time. Moreover, the GI50 with K562 and in the test on EKVX was > 100 µM (inactive) in each case.
As to `CN1Cc2cc(O)c(O)cc2C(O)C1` (stereo not drawn), the GI50 with SK-MEL-5, in the test with SNB-75, in the test with MCF7, in the test with TK-10, in the test on NCI-H226 and with HT-29 was > 100 µM (inactive) in each case. Besides, the GI50 with SN12C, in the test on HCT-116, with RXF 393, with SF-295, in the test with OVCAR-3 and with SK-MEL-28 was > 100 µM (inactive) throughout. The GI50 in the test on U-251, with A549, with IGROV-1, in the test with HCC 2998, with NCI-H460 and with K562 was > 100 µM (inactive) throughout. For the same molecule, the GI50 in the test with EKVX and with SK-OV-3 was > 100 µM (inactive) throughout.
For `O=C1CC(/C=C/c2ccco2)=C(O)C1=O`, the GI50 was 13.7 µM (inactive) in the test with SK-MEL-5; 16 µM (inactive) with SNB-75; 7.01 µM (inactive) in the test on MCF7; 22.5 µM (inactive) in the test with TK-10; 22 µM (inactive) in the test with NCI-H226; 11.7 µM (inactive) in the test on HT-29. For the same molecule, the GI50 with SN12C was 13.6 µM (inactive); in the test with HCT-116, 13.6 µM (inactive); with RXF 393, 9.59 µM (inactive); in the test on SF-295, 19.5 µM (inactive); in the test with OVCAR-3 it was 13 µM (inactive); with SK-MEL-28, 28.8 µM (inactive). Besides, the GI50 with U-251 was 13.6 µM (inactive); with A549, 23.9 µM (inactive); with IGROV-1, 10.7 µM (inactive); with HCC 2998 it was 17.9 µM (inactive); with NCI-H460 it was 17.6 µM (inactive); with K562 it was 12.1 µM (inactive). Further, the values for the GI50 with EKVX and with SK-OV-3 were 15.7 µM (inactive) and 21.9 µM (inactive), respectively.
Consider `COc1cc(C2C3=C(CCC3=O)Oc3cc4c(cc32)OCO4)cc(OC)c1OC` (stereo not drawn), for which the GI50 is 0.237 µM (active) in the test with SK-MEL-5; 0.038 µM (active) in the test on SNB-75; 0.417 µM (active) in the test with TK-10; 0.279 µM (active) with HT-29; 0.593 µM (active) with SN12C; 0.391 µM (active) with HCT-116. Further, the GI50 with RXF 393 is 0.54 µM (active); in the test with SF-295, 0.109 µM (active); in the test with OVCAR-3, 0.136 µM (active); with SK-MEL-28 it was 0.429 µM (active); in the test with U-251, 0.366 µM (active); with A549, 0.448 µM (active). Besides, the GI50 in the test with IGROV-1 was 0.67 µM (active); with NCI-H460, 0.358 µM (active); in the test on K562 it was 0.138 µM (active); in the test with EKVX, 0.422 µM (active); with SK-OV-3, 0.28 µM (active).
Consider `CC(C)=CC(=O)OC1C2C(C)C(=O)OC2C(O)C(C)C2C=CC(=O)C21C` (stereo not drawn), for which the GI50 was 3.32 µM (inactive) with SK-MEL-5; 2.72 µM (inactive) in the test on SNB-75; 2.43 µM (inactive) in the test with MCF7; 5.22 µM (inactive) in the test on NCI-H226; 3.21 µM (inactive) in the test on HT-29; 3.69 µM (inactive) with SN12C. Moreover, the GI50 with HCT-116 is 1.66 µM (inactive); in the test with RXF 393, 1.28 µM (inactive); in the test on SF-295, 6.14 µM (inactive); in the test on OVCAR-3, 2.75 µM (inactive); with SK-MEL-28, 1.34 µM (inactive); with U-251, 4.06 µM (inactive). For the same molecule, the GI50 in the test with A549 is 8.65 µM (inactive); in the test with IGROV-1, 3.33 µM (inactive); with HCC 2998, 5.47 µM (inactive); in the test on NCI-H460, 1.96 µM (inactive); with K562, 2.14 µM (inactive); in the test with EKVX it was 2.92 µM (inactive). Also, in the test with SK-OV-3, the GI50 was 7.23 µM (inactive).
Regarding `CN1OC(=O)N(C)C1c1ccccc1` (stereo not drawn), the GI50 with SK-MEL-5, with SNB-75, in the test on MCF7, with NCI-H226, with HT-29 and in the test with SN12C was > 100 µM (inactive) throughout. Besides, the GI50 in the test with HCT-116, with RXF 393, in the test on SF-295, in the test on OVCAR-3, in the test on SK-MEL-28 and in the test on U-251 was > 100 µM (inactive) each time. Besides, the GI50 in the test with A549, with IGROV-1, in the test on HCC 2998, in the test with NCI-H460, in the test with K562 and in the test on EKVX was > 100 µM (inactive) each time. Further, the GI50 in the test on SK-OV-3 was > 100 µM (inactive).
